One experiment concerns the target HCV NS3/4A protease (UniProt Q9WMX2). Put plainly: Method B: HCV Protease Assay using FRET Methodology. Details: species or system Hepatitis C virus. The source says: Method B: HCV Protease Assay using FRET Methodology
A quantitative, fluorescence resonance energy transfer (FRET)-based methodology was employed to identify HCV NS3/4A protease inhibitors. The assay employed a synthetic FRET peptide, derived from the HCV NS5A/5B cleavage site, with the HCV protease to evaluate the activity of compounds against the protease by monitoring the cleavage activity of the complex. A synthetic peptide which encompasses the NS5A-5B junction (NH2-EDVVCCSMSYK-COOH) was labeled with Dabcyl and Edans at N- and C-termini, respectively (Invitrogen, Carlsbad, Calif.). Fluorescence measurement was used to estimate the IC50 value of the test compound. […] Upon cleavage of the FRET peptide by HCV NS3/4A proteinase complex (100 ng/mL), the fluorescence is recovered and can be continuously monitored at excitation/emission=340/490 nm.

For experiment [1], the target named is T1, wild type HCV NS3/4A 1b protease enzyme (Hepatitis C virus genotype 1b, UniProt P26663).
T1 construct: 10× stocks of NS3/4A protease enzyme from Bioenza (Mountain View, Calif.); purchased Bioenza (Mountain View, Calif.)
Put plainly: biochemical. The format is biochemical. As to conditions: read-out: Inhibition, WT; WT enzyme, FRET assay.

The target of experiment [2] is T2, D168A mutant of the HCV NS3/4A 1b protease enzyme (Hepatitis C virus genotype 1b, UniProt P26663, D1194A).
T2 construct: 10× stocks of NS3/4A protease enzyme from Bioenza (Mountain View, Calif.); purchased Bioenza (Mountain View, Calif.)
Put plainly: HCV Protease FRET Assay (IC50), D168A mutant. The class given is biochemical.

The target in experiment [3] is T3, HCV NS3/4A wild type (genotype 1b) (Hepatitis C virus genotype 1b, UniProt P26663).
T3 construct: mass spectroscopic analysis of HCV NS3/4A wild-type protease domain; purchased Bioenza Calif
Put plainly: Mass spectrometric analysis (MALDI-TOF) of covalent modification, HCV wild type. The format is binding. The note with it: 10-fold excess of compound to protein, 3 hrs. The protocol:
Mass spectrometric analysis of HCV wild type or HCV variant C159S in the presence of test compound was performed. 100 pmols of HCV wild type (Bioenza Calif.) was incubated with compound for 1 hr and 3 hrs at 10-fold access of […] to protein. 1 ul aliquots of the samples (total volume of 4.24 ul) were diluted with 10 ul of 0.1% TFA prior to micro C4 ZipTipping directly onto the MALDI target using Sinapinic acid as the desorption matrix (10 mg/ml in 01% TFA:Acetonitrile 50:50). Analyses were performed on a Shimadzu Biotech Axima TOF^2 (Shimadzu Instruments) matrix-assisted-laser desorption/ionization Time-of-Flight (MALDI-TOF) mass spectrometer. The same procedure was carried out on 100 pmols of HCV C159S mutant of HCV protease for 3 hrs at 10-fold excess of (I-3) to protein.
As depicted in FIGS. 2, 3, 4, and 5, mass spectrometric analysis of HCV wild type or HCV mutants in the presence of test compound (I-3) was performed. […] 1 ul aliquots of the samples were diluted with 10 ul of 0.1% TFA prior to micro C4 ZipTipping directly onto the MALDI target using Sinapinic acid as the desorption matrix (10 mg/ml in 0.1% TFA:Acetonitrile 50:50).
Mass spectrometric analysis of HCV wild type (genotype 1b) in the presence of test compounds I-73 and I-75 was performed using the following protocol: HCV NS3/4A wild type (wt) was incubated for 1 hr at a 10× fold access of test compound to protein. 2 ul aliquots of the samples were diluted with 10 ul of 0.1% TFA prior to micro C4 ZipTipping directly onto the MALDI target using Sinapinic acid as the desorption matrix (10 mg/ml in 0.1% TFA:Acetonitrile 50:50). For intact protein mass measurement the instrument was set in Linear mode using a pulsed extraction setting of 24,500 and apomyoglobin as the standard to calibrate the instrument.
Mass spectrometric analysis of HCV NS3/4A genotypes 1a, 1b, 2a, and 3a in the presence of test compound I-96 was performed using the following protocol: HCV NS3/4A was incubated for 3 hr at a 10× fold access of test compound to protein. […]

[4] abbreviates: read-out: Inhibition, HCV D168A, D168A enzyme, FRET assay.

The values below come from patent US8309685B2 (Celgene Avilomics Research, Inc., priority 2007, dated 2012).

SMILES strings stand for the structures. Read-outs that look alike come from different tables or passages of the source.

With `C=CC(=O)NC[C@H](NC(=O)OC(C)(C)C)C(=O)N1C[C@H](Oc2cc(-c3ccccc3)nc3cc(OC)ccc23)C[C@H]1C(=O)N[C@]1(C(=O)NS(=O)(=O)c2ccccc2)C[C@H]1C=C` [Compound I-3, N-[(1,1-dimethylethoxy)carbonyl]-3-[(2-propenoyl)amino]-L-alanyl-(4R)-4-[(7-methoxy-2-phenyl-4-quinolinyl)oxy]-L-prolyl-1-amino-2-ethenyl-N-(phenylsulfonyl)-(1R,2S)-cyclopropanecarboxamide], the IC50 at HCV NS3/4A protease (Enzyme/Assay: Biochemical; read-out: Inhibition, Biochemical) was 10 to 100 nM; in experiment [1], < 10 nM; in experiment [2] (read-out: Comparative IC50 Values, D168A, biochemical assay), 45 nM; in experiment [2] (setting [4]) it was 10 to 100 nM.

As to `C=C[C@@H]1C[C@]1(NC(=O)[C@@H]1C[C@@H](Oc2cc(-c3ccccc3)nc3cc(OC)ccc23)CN1C(=O)[C@H](CNC(=O)CCl)NC(=O)OC(C)(C)C)C(=O)NS(=O)(=O)c1ccccc1` [Compound I-7, N-[(1,1-dimethylethoxy)carbonyl]-3-[(chloroacetyl)amino]-L-alanyl-(4R)-4-[(7-methoxy-2-phenyl-4-quinolinyl)oxy]-L-prolyl-1-amino-2-ethenyl-N-(phenylsulfonyl)-(1R,2S)-cyclopropanecarboxamide], the IC50 was 10 to 100 nM on HCV NS3/4A protease (read-out: Inhibition, Biochemical; Enzyme/Assay: Biochemical); < 10 nM in experiment [1]; 10 to 100 nM in experiment [2] (setting [4]).

Turning to `C=CC(=O)NCC(=O)N1C[C@H](Oc2cc(-c3ccccc3)nc3cc(OC)ccc23)C[C@H]1C(=O)N[C@]1(C(=O)NS(=O)(=O)c2ccccc2)C[C@H]1C=C` [Compound I-27, (2S,4R)-1-(2-acrylamidoacetyl)-4-(7-methoxy-2-phenylquinolin-4-yloxy)-N-((1R,2S)-1-(phenylsulfonylcarbamoyl)-2-vinylcyclopropyl)pyrrolidine-2-carboxamide], the “Covalent modification of HCV wild type by mass spectrometry” value in experiment [3] was “near complete covalent modification”. Also, the figures for the IC50 in experiment [1] and in experiment [2] (setting [4]) were < 10 nM and 10 to 100 nM, respectively.
